The results in this text go back to US7875586B2 (priority 2002, dated 2011).

Assay type in all cases: cell-based, human
The subject of assay [1] is Caco-2 cells.
For another assay, the system named is T-84 cells.
A further assay concerns living Caco-2 cells.
Assay [2] has as its system Caco-2 cells. This is another data set of the same source.

“Also recorded” adds a separate entry of the source. Peptide text beside a SMILES is read from it. * marks the point of attachment. Cbz = O=C(OCc1ccccc1)*; CH2F = FC*

`CCCCCCCCCCCCCCCC(=O)NC(CN1CCOCC1)C(O)c1ccccc1` (stereo not drawn) [PPMP, threo-1-phenyl-2-palmitoylamino-3-morpholino-1-propanol]: the “Subpopulation of Gb3 enriched cells with filopodia on the leading edge” value in the assay with Caco-2 cells [1] and in the assay on T-84 cells was “completely eliminated” each time.

For the molecule `C[C@@H](N)[C@H]1CC[C@H](C(=O)Nc2ccncc2)CC1` [Y-27632], in the assay on living Caco-2 cells, the Cell morphology entry is given as “pronounced effects”; the “Filopodia and filopodia-mediated cell-cell contacts” value is reported as “did not change”.

Regarding `COC(=O)C[C@H](NC(=O)[C@H](C)NC(=O)[C@@H](NC(=O)OCc1ccccc1)C(C)C)C(=O)CF` [z-VAD-fink] (Cbz-Val-Ala-Asp(OMe)-CH2F), the “Effect of caspase inhibition on DNA fragmentation caused by Stx1B” value with Caco-2 cells [2] is “decreased DNA fragmentation; also recorded: Inhibition of apoptotic DNA fragmentation”.
